Results reported in article PMC2834185 (Nature chemical biology, 2010).
“Also recorded” adds a separate entry of the source.

Experiments:
embryonic zebrafish [1] = assay: photomotor response; type: in vivo; conditions: for effect on motor activity in the PMR / effect on PMR latency period / effect on PMR excitation phase (motor response to the first stimulus) / effect on PMR refractory period (response to the second stimulus): embryonic zebrafish; for effect on motor activity in the PMR / effect on PMR latency period / effect on PMR excitation phase (motor response to the first stimulus): light stimulus; for effect on PMR refractory period (response to the second stimulus): second light pulse; for suppression of AzMet behavioral effects (PMR excitation): AzMet co—treated with 2—PAM and atropine
MAO—B = target: T1, MAO—B (Homo sapiens, UniProt P27338); conditions: in vitro; warfarin at 10 μM
T1 sequence (P27338 1-520): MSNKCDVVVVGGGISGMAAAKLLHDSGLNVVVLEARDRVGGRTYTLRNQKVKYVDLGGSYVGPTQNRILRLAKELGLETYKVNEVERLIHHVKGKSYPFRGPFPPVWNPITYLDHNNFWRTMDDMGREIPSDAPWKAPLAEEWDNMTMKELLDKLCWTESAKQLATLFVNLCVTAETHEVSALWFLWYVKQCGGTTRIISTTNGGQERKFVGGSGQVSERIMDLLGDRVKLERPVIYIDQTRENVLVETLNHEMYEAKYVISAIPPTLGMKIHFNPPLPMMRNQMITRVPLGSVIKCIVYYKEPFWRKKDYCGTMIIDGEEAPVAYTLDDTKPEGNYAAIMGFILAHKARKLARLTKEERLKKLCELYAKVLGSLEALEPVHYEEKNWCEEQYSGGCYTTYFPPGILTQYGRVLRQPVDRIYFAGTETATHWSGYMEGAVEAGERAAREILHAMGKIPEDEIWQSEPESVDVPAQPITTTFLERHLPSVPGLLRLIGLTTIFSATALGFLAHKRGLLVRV

embryonic zebrafish [2] = assay: embryonic touch response; type: in vivo; conditions: touch stimulus
purified AChE = purified AChE (Homo sapiens, UniProt P22303); assay: AChE activity assay in vitro; conditions: 10 μM
purified AChE, sequence (P22303 32-614): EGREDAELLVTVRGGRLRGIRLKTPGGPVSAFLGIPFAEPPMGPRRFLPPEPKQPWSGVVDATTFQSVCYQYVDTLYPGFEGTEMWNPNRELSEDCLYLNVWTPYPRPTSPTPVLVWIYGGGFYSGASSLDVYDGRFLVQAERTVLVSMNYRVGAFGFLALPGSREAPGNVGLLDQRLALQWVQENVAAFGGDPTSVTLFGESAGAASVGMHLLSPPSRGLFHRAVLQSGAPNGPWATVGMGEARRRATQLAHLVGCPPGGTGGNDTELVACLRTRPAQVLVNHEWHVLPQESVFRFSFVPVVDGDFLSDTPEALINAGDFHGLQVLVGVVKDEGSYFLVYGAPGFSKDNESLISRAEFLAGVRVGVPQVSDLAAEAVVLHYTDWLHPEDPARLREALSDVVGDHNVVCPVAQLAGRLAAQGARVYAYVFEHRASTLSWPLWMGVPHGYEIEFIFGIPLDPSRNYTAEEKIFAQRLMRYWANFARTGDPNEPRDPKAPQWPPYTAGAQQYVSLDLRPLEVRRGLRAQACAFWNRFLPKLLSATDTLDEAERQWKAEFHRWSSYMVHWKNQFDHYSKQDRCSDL

With `CNC[C@H](O)c1ccc(O)c(O)c1` [epinephrine] the “effect on motor activity in the PMR” value (embryonic zebrafish [1]) was “elevated activity in all PMR phases”.
With `CCCN1CCO[C@@H]2c3cc(O)ccc3OC[C@H]21` [PD128907] the “effect on PMR latency period” value (embryonic zebrafish [1]) was “prolonged latency period”.
In the case of `O=[N+]([O-])c1ccc2nc(N3CCNCC3)ccc2c1` [6—nitroquipazine], the “effect on PMR excitation phase (motor response to the first stimulus)” value (“effect on PMR excitation phase” below) (embryonic zebrafish [1]) is reported as “exhibited a robust but brief motor response to the first stimulus”, the “effect on PMR refractory period (response to the second stimulus)” value (embryonic zebrafish [1]) is reported as “also responded to the second stimulus” and the “effect on PMR refractory period (response to the second stimulus)” value (embryonic zebrafish [1]; listed as 6—Nitroquipazine) is reported as “modulates the PMR refractory period”.
In the case of `CC(C)(C)NCC(O)c1cc(Cl)c(N)c(Cl)c1` (stereo not drawn) [clenbuterol], the “effect on motor activity in the PMR” value (embryonic zebrafish [1]) is reported as “elevated activity in all PMR phases”.
`C[C@]12CC[C@H]3[C@@H](CC[C@]4(O)C[C@@H](O)CC[C@]34C(=O)O)[C@@]1(O)CC[C@@H]2C1=CC(=O)OC1` [strophanthidinic acid] was tested, and the “effect on PMR excitation phase” value (embryonic zebrafish [1]) was “prolongation of the PMR excitation period”.
`CN1[C@@H]2CC[C@H]1C[C@@H](OC(=O)C(CO)c1ccccc1)C2` (stereo partly drawn) [atropine] was tested, and the “suppression of AzMet behavioral effects (PMR excitation)” value (embryonic zebrafish [1]) was “counteracted the behavioral effects of AzMet”.
With `COP(=S)(OC)SCn1nnc2ccccc2c1=O` [azinphos methyl] the paralysis in zebrafish (embryonic zebrafish [1]; compared to untreated controls) was “caused paralysis in zebrafish” and the “effect on PMR excitation phase” value (embryonic zebrafish [1]) was “reduced levels of PMR excitation”.
In the case of `CN1C(=O)CN=C(c2ccccc2)c2cc(Cl)ccc21` [diazepam], the “effect on motor activity in the PMR” value (embryonic zebrafish [1]) is reported as “decreased activity” and the “effect on motor activity in the PMR” value (embryonic zebrafish [1]; listed as Diazepam) is reported as “reduces motor activity”.
For `CC(=O)CC(c1ccccc1)c1c(O)c2ccccc2oc1=O` (stereo not drawn) [warfarin], the “inhibition of MAO activity” value (MAO—B) was “nor inhibit MAO activity” and the “PMR magnitude stimulant (MAG) phenotype” value (embryonic zebrafish [1]; increased PMR excitation magnitude and duration, warfarin at 10 μM) was “do not produce a MAG phenotype”.
`CCN1C[C@]2(COC)[C@H](O)C[C@H](OC)[C@@]34[C@@H]5C[C@@]6(O)[C@H](OC(=O)c7ccccc7)[C@@H]5[C@@](OC(C)=O)([C@@H]([C@H](OC)[C@H]23)[C@@H]14)[C@@H](O)[C@@H]6OC` [aconitine] was tested, and the “effect on PMR excitation phase” value (embryonic zebrafish [1]) was “prolongation of the PMR excitation period”.
With `Oc1cc2c(cc1O)[C@H]1c3ccccc3CN[C@@H]1CC2` (racemic) [dihydrexidine] the “effect on PMR latency period” value (embryonic zebrafish [1]) was “prolonged latency period”.
`CC(C)[C@@]1(NC(=O)[C@@H]2C[C@@H]3c4cccc5[nH]cc(c45)C[C@H]3N(C)C2)O[C@@]2(O)[C@@H]3CCCN3C(=O)[C@H](Cc3ccccc3)N2C1=O` [dihydroergocristine] was tested, and the “effect on PMR latency period” value (embryonic zebrafish [1]) was “prolonged latency period”.
In the case of `COc1ccc(C(=O)O[C@H]2CC[C@@]3(C)[C@@H]4CC[C@H]5[C@]6(O)C[C@H](O)[C@@]7(O)[C@@H](CN8C[C@@H](C)CC[C@H]8[C@@]7(C)O)[C@]6(O)C[C@@]53O[C@]24O)cc1OC` [veratridine], the “effect on PMR excitation phase” value (embryonic zebrafish [1]) is reported as “prolongation of the PMR excitation period”.
With `CC(C)NCC(O)c1ccc(O)c(O)c1` (stereo not drawn) [isoproterenol] the “effect on motor activity in the PMR” value (embryonic zebrafish [1]) was “increased motor activity throughout the PMR; also recorded: elevated activity in all PMR phases” and the “effect on motor activity in the PMR” value (embryonic zebrafish [1]; listed as Isoproterenol) was “increases zebrafish motor activity”.
In the case of `O=C(CCCN1C(=O)c2ccccc2C1=O)N1CCCCCC1` [STR—1], the “phenotype in the ETR assay” value (embryonic zebrafish [2]) is reported as “slow—to—relax (STR) phenotype”.
`C[C@]12CC[C@H](O)C[C@H]1CC[C@@H]1[C@@H]2CC[C@]2(C)[C@@H](C3=CC(=O)OC3)CC[C@]12O` [digitoxigenin] was tested, and the “toxicity in the PMR assay” value (embryonic zebrafish [1]; concentrations above the active range (Supplementary Fig. 1)) was “induced toxicities at higher concentrations”, the “effect on PMR excitation phase” value (embryonic zebrafish [1]) was “caused a vigorous and prolonged motor response to the stimulus; also recorded: prolongation of the PMR excitation period” and the “effect on PMR excitation phase” value (embryonic zebrafish [1]; listed as Digitoxigenin) was “prolongs duration of the PMR excitation phase”.
For `CN1CCc2cccc3c2[C@H]1Cc1ccc(O)c(O)c1-3` [apomorphine], the “effect on PMR latency period” value (embryonic zebrafish [1]) was “lengthened the PMR latency period” and the “effect on PMR latency period” value (embryonic zebrafish [1]; listed as Apomorphine) was “increases PMR latency period duration”.
In the case of `C[n+]1ccccc1C=NO` [pralidoxime], the “suppression of AzMet behavioral effects (PMR excitation)” value (embryonic zebrafish [1]) is reported as “counteracted the behavioral effects of AzMet”.
In the case of `O=C1c2ccccc2-c2nc3ncnn3c(-c3ccccc3Cl)c21` [STR—2], the “inhibition of purified AChE in vitro” value (purified AChE) is reported as “did not inhibit purified AChE in vitro” and the “phenotype in the ETR assay” value (embryonic zebrafish [2]) is reported as “slow—to—relax (STR) phenotype”.
`CNC(=O)Oc1ccc2c(c1)[C@]1(C)CCN(C)[C@@H]1N2C` [eserine] was tested, and the “phenotype in the ETR assay” value (embryonic zebrafish [2]) was “slow—to—relax (STR) phenotype”.
